Results reported in PMC5909127, “Optimization of a “bump-and-hole” approach to allele-selective BET bromodomain inhibition” (Chemical Science, 2018).
Like-named read-outs stand apart in the source and are kept apart here.

Assays:
[1] = target: WT BET bromodomains (BD1 and BD2 of BRD2, BRD3 and BRD4); test: competitive AlphaLISA (Bio-JQ1 displacement); assay type: binding, human; settings: mean and SD of all somatic bromodomains; active enantiomer concentration
[2] = test system: L/V BET bromodomains (BD1 and BD2 of BRD2, BRD3 and BRD4); test: competitive AlphaLISA (Bio-JQ1 displacement); assay type: binding, human; settings: for AlphaLISA pIC50 ± SD Δ: L/V minus WT; for AlphaLISA pIC50 ± SD L/V: mean and SD of all somatic bromodomains, active enantiomer concentration
[3] = target: BRD2 BD1 WT (Homo sapiens, UniProt P25440); test: competitive AlphaLISA; assay type: binding
Sequence of BRD2 BD1 WT (P25440 71-176): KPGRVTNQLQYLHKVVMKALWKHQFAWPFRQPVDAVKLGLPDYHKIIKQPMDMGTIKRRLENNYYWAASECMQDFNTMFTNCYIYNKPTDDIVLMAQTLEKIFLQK

[4] = target: BRD2 BD1 L/V (Homo sapiens, UniProt P25440, L110V); test: competitive AlphaLISA; assay type: binding
Sequence of BRD2 BD1 L/V (P25440 71-176 L110V limits assumed): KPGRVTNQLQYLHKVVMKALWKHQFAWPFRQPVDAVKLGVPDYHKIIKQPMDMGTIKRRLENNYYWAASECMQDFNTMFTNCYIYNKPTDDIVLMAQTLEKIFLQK

[5] = target: BRD2 BD2 WT (Homo sapiens, UniProt P25440); test: competitive AlphaLISA; assay type: binding
Sequence of BRD2 BD2 WT (P25440 344-455): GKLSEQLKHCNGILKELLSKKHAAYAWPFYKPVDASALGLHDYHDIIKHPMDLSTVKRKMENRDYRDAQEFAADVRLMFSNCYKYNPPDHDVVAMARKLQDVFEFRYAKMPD

[6] = target: BRD2 BD2 L/V (Homo sapiens, UniProt P25440, L383V); test: competitive AlphaLISA; assay type: binding
Sequence of BRD2 BD2 L/V (P25440 344-455 L383V): as the sequence (P25440 344-455) above, with L40V counted along it

[7] = target: BRD3 BD1 WT (Homo sapiens, UniProt Q15059); test: competitive AlphaLISA; assay type: binding
Sequence of BRD3 BD1 WT (Q15059 24-144): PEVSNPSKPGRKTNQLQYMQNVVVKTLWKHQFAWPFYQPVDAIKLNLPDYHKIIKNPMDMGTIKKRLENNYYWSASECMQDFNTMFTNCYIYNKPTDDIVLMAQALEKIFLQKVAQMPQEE

[8] = target: BRD3 BD1 L/V (Homo sapiens, UniProt Q15059, L70V); test: competitive AlphaLISA; assay type: binding
Sequence of BRD3 BD1 L/V (Q15059 24-144 L70V limits assumed): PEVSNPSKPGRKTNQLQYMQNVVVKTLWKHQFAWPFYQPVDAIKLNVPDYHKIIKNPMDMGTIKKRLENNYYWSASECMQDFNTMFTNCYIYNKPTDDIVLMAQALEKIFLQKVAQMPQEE

[9] = target: BRD3 BD2 WT (Homo sapiens, UniProt Q15059); test: competitive AlphaLISA; assay type: binding
Sequence of BRD3 BD2 WT (Q15059 306-416): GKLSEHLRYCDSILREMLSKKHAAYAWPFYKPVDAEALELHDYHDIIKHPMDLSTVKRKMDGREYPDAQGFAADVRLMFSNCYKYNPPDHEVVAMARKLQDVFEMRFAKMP

[10] = target: BRD3 BD2 L/V (Homo sapiens, UniProt Q15059, L345V); test: competitive AlphaLISA; assay type: binding
Sequence of BRD3 BD2 L/V (Q15059 306-416 L345V limits assumed): as the sequence (Q15059 306-416) above, with L40V counted along it

[11] = target: BRD4 BD1 WT (Homo sapiens, UniProt O60885); test: competitive AlphaLISA; assay type: binding; settings: AlphaLISA pIC50 Value BRD4 BD1 WT
[12] = target: BRD4 BD1 L/V (Homo sapiens, UniProt O60885, L94V); test: competitive AlphaLISA; assay type: binding; settings: AlphaLISA pIC50 Value BRD4 BD1 L/V
[13] = target: BRD4 BD2 WT (Homo sapiens, UniProt O60885); test: competitive AlphaLISA; assay type: binding
[14] = target: BRDT BD1 WT (Homo sapiens, UniProt Q58F21); test: competitive AlphaLISA; assay type: binding
[15] = target: BRDT BD1 L/V (Homo sapiens, UniProt Q58F21, L63V); test: competitive AlphaLISA; assay type: binding
[16] = Plasma Half-life; settings: BALB/c, mouse, pH 7.4
[17] = Intrinsic Clearance; settings: mouse liver microsomes
[18] = target: BRD4 BD2 L/V (Homo sapiens, UniProt O60885, L387V); test: competitive AlphaLISA; assay type: binding
[19] = target: BRDT BD2 WT (Homo sapiens, UniProt Q58F21); test: competitive AlphaLISA; assay type: binding
[20] = target: BRDT BD2 L/V (Homo sapiens, UniProt Q58F21, L306V); test: competitive AlphaLISA; assay type: binding

Compound	AlphaLISA pIC50 ± SD WT [1]	AlphaLISA pIC50 ± SD Δ [2]	AlphaLISA pIC50 ± SD L/V [2]	IC50 [3] [µM]	IC50 [4] [µM]	IC50 [5] [µM]	IC50 [6] [µM]	IC50 [7] [µM]	IC50 [8] [µM]	IC50 [9] [µM]	IC50 [10] [µM]	IC50 [11] [µM]	IC50 [12] [µM]	IC50 [13] [µM]	IC50 [14] [µM]	IC50 [15] [µM]	half-life at 50 µM [16] [h]	CL int [17] [ml min^–1 g^–1]	IC50 [18] [µM]	IC50 [19] [µM]	further results
CCC[C@@H](C(=O)OC)[C@@H]1N=C(c2ccc(Cl)cc2)c2cc(OC)ccc2-n2c(C)nnc21 (relative stereo) [Compound 6]	4.5 ± 0.2	0.6 ± 0.2	5.0 ± 0.1	31.6	10	> 100	10	20	6.31	20	10	25.1	7.94	63.1	31.6	25.1	> 3	5.2			selectivity (L/V over WT, AlphaLISA) [2]: less than 10 fold
CC[C@@H](C(=O)OC(C)(C)C)[C@@H]1N=C(c2ccc(Cl)cc2)c2ccc(OC)cc2-n2c(C)nnc21 [Compound 25]	4.6 ± 0.1	0.4 ± 0.2	5.0 ± 0.2	39.8	10	20		20	5.01	25.1	10	15.8	7.94	25.1	25.1		> 3	31.0	20	39.8	
Cc1sc2c(c1C)C(c1ccc(Cl)cc1)=N[C@@H](CC(=O)OC(C)(C)C)c1nnc(C)n1-2 [(+)JQ1, reference compound]		–0.1 ± 0.1															> 3	7.5			
COC(=O)CC1N=C(c2ccc(Cl)cc2)c2ccc(OC)cc2-n2c(C)nnc21 (stereo not drawn) [Compound 2]	5.8 ± 0.2	0.1 ± 0.1	5.9 ± 0.2	2	1.58	2.51	2		0.501	2.51	1	1	1	2.51	2	1.58	1.12	1.7	2.51	3.98	IC50 [20]: 3.16 µM
CCNC(=O)C[C@@H]1N=C(c2ccc(Cl)cc2)c2cc(OC)ccc2-n2c(C)nnc21 [I-BET762, reference compound]																					IC50 ([15]; read-out: AlphaLISA pIC50 Value BRDT BD1 L/V (converted)): 1 µM
C=CC[C@@H](C(=O)OC(C)(C)C)[C@@H]1N=C(c2ccc(Cl)cc2)c2cc(OC)ccc2-n2c(C)nnc21 [Compound 24]	5.3 ± 0.1	0.9 ± 0.2	6.2 ± 0.2	5.01	1.26	7.94	0.501	3.98	0.316	6.31	0.794	5.01		3.98	7.94	2	> 3	39.1	1	10	IC50 [20]: 1.58 µM
CCN(CC)C(=O)[C@H](C)[C@@H]1N=C(c2ccc(Cl)cc2)c2cc(OC)ccc2-n2c(C)nnc21 (relative stereo) [Compound 19]	4.9 ± 0.2	1.2 ± 0.2	6.1 ± 0.2		1	25.1	1	5.01	0.398		0.501		1.26	25.1	39.8	3.98	> 3	>50	1.26	25.1	IC50 [20]: 3.16 µM
